Key:
[1] = system: hamster lymph node mononuclear cells; test: Proliferation of lymph node cells to Con-A and Leishmania soluble antigens, tritiated thymidine; assay type: cell-based; settings: 45 days after challenging infection, 20 ug/ml antigen
Experimental: Lymph nodes of hamsters from experimental and control groups, as indicated, were used 45 days after challenging infection to prepare mononuclear cell-suspension (10^6/ml). Aliqouts of 100 ul were cultured in 96 well flat bottom tissue culture plates (Nunc, Denmark). 100 ul of Conconavalin A or soluble L. donovani promastigote antigens were added to each well, giving a final concentration of 10 ug/ml and 20 ug/ml, respectively. Cultures were prepared in triplicate for each sample and incubated at 37° C. and 5% CO2 for 3 days and 5 days for Con-A treated and antigen-treated cells, respectively. Eighteen hours prior to termination of incubation of cultures, 0.5 uCi of tritiated-thymidine was added to each well. Cells were harvested on to glass fiber mats (Whatman) for liquid scintillation counting.

[2] = system: Leishmania donovani DD8; test: Hamster vaccination, Experiment 2, challenge with L. donovani; assay type: in vivo, Syrian Golden hamsters
Excerpt: The values for body weights were from all animals available at specific time points. Two animals were sacrificed per group per time point for assessing spleen weights and parasite loads;
Impression smears (Left panel) of cut spleens were Geimsa-stained and examined microscopically under oil immersion lens to enumerate amastigotes per 1,000 splenic nuclei as a measure of parasite loads (Right Panel). Note: Parasite loads decrease precipitously after day 45 in contrast to the control groups. The data are consistent with the data for animal body weights and spleen weights; and
The 2nd experiment was designed to verify and to strengthen the results of the 1st experiment by including 2 additional control groups. One is to treat animals with ALA alone so as to eliminate the potential contribution of this metabolite to the outcome observed. Another is to include pbgd single transfectants (ST) as an additional non-porphyric control to ascertain that the prophylactic effects observed are independent of factors specific to DT or L. amazonensis infection alone. There is some indication of this in the 1st experiment for “vaccination” of hamsters with the DT−ALA+LD group whose splenic parasite loads remained high, but the amastigotes look degenerative (FIG. 20). Except for “vaccination” on the back and illumination with white light, experimental conditions otherwise followed those in the 1st as follows:
A total of 50 Syrian Golden hamsters (40-45 gm) were used 10 per group for each of the following experimental and control groups:
Day 6 (Sep. 28, 2004): Harvest and resuspend cells for inoculation intradermally to a shaved area (˜2 cm×2 cm) on the back of the animals as follows:
Days 9-12 (Oct. 1-4, 2004): inject the same site of each animal daily 4× with 20 ul […] ALA solution
Days 13-17 (Oct. 5-9, 2004): Illuminate caged animals from 9 AM to 5 PM daily for five days under white light [Four bulbs of 100 W (Phillips)+2 tube lights of 40 W in an AC room of 6 ft×6 ft×10 ft] 2 ft above, keeping a constant temperature of 26-27° C.
[…] (Oct. 25, 2004): Challenge 9 animals of each group with 107 DD8 strain of L. donovani amastigotes/animal by intracardiac route.
Day 78 (Dec. 9, 2004): Parasitological/immunological evaluations-45 days post-challenge (FIG.).
Day 93 (Dec. 24, 2004): Parasitological/immunological evaluations-60 days post-challenge (FIG.).
Day 147 (Feb. 16, 2005): survivors left of a total of 4 animals 114 days after challenge, excluding 6 sacrificed for experimentation on days 0, 45, and 60.

[3] = system: J774A1 macrophages infected with alad/pbgd double transfectants; test: Intracellular transgenic amastigotes and macrophages per culture after ALA; assay type: cell-based, mouse; settings: 1-2 mM ALA
Experimental: J774A1 cells were infected in vitro with alad/pbgd double transfectants of L. amazonensis at a promastigote-to-macrophage ratio of 10:1. Infected cultures were maintained at 35° C. with daily medium renewal for 42 days. Cultures were split equally into two, one with and the other without the addition of 1-2 mM ALA 3 times on days 2, 26 and 40 post-infection (arrows). The total number of intracellular amastigotes (left) and macrophages (right) per culture were estimated at the time points indicated, as described (Chang, 1980). Note: Decrease of intracellular amastigotes in number after the 1st 2 ALA treatments.
Intra-macrophage amastigotes are lysed selectively when rendered uroporphyric in situ, as determined by quantitative analysis of parasites and macrophages in such infected cultures (FIG. 15). This observation further strengthens the use of porphyric Leishmania as a live model for vaccine delivery. We observed this by using macrophages infected with the double transfectants. The infected cultures were split equally into 2 identical sets. In a total period of 42 days, one set received 3 separate ALA treatments, each pulsed for ˜24 hrs, at different time points after infection, while the other set received no treatments (see legend to FIG. 15 for experimental conditions). […]

NCC(=O)CCC(=O)O [ALA, delta-aminolevulinate]
lymph node cell response to LSA [1]: virtually no response
survivors left of a total of 4 animals ([2]; 114 days after challenge): 0/4
immunoprophylactic effect ([2]; ALA treatment alone): ineffective
splenic parasite loads, amastigotes in impression smears ([2]; day 45 to day 60 post challenge): abundant in number
splenomegaly by spleen weight ([2]; days 45 and 60 post-challenge): most pronounced
growth of J774A1 macrophages [3]: unaffected

Source: patent US7238347B2, “Suicidal mutant Leishmania vaccine” (priority 2005, dated 2007)
